One data set relates to Salmonella choleraesuis. The format is cell-based. On the procedure: (§1) Plates were incubated at 37° C. for 18 hr. […] Viable bacteria were counted. Tests were repeated on three different days. […] The results were expressed as the mean ± standard deviation. […] S. choleraesuis, ATCC 6962 was used in this experiment. […] Slides were stained with LeukoStat solutions (Fisher, Pittsburgh, Pa.). […] At least 200 neutrophils were examined. […] Tests were repeated on three different days. Results were expressed as the mean±standard deviation.

In another data set the test system is Escherichia coli, 25922. The data set can be described thus: MIC/MBC microdilution broth method. The format is cell-based. The procedure:
as §1
(In general: Broth dilution looks for growth in wells or tubes with falling amounts of substance.)

Another data set has as its system Salmonella typhimurium. The data set is described as follows: MIC/MBC microdilution broth method. The format is cell-based. The settings on record: murium. The procedure: as §1
For a further data set, the system named is Staphylococcus aureus. The data set can be described thus: MIC/MBC microdilution broth method. Format: cell-based. On the procedure:
as §1

In the next data set the test system is Streptococcus suis. The data set is described as follows: MIC/MBC microdilution broth method. The format is cell-based. The procedure: as §1
The next data set concerns S. typhimurium. The data set is described as follows: Survival of mice after oral S. typhimurium challenge (first experiment). The settings on record: 100 or 250 μg/mouse. The format is in vivo, A/J mice. The procedure: Effect of PR-26 on survival of mice challenged with S. typhimurium. Three separate S. typhimurium challenge studies were conducted with mice. In the first experiment, 45 A/J mice (Jackson Labs, Bar Harbor, Me.) were orally challenged with S. typhimurium. Feed was withdrawn 4 hrs. prior to an oral inoculation. Twenty min. prior to the inoculation with S. typhimurium mice were given a 30 μl dose of a 10% sodium bicarbonate solution in PBS. S. typhimurium, strain KSU007, was started in brain heart infusion broth overnight and then grown for 6 hrs. in Luria Broth Base (GIBCO, Gaithersburg, Md.). After centrifugation, bacteria were suspended in a 1% gelatin solution (final concentration 1.24×10^10 S. typhimurium/ml), and then 25 μl were given orally. Immediately following oral inoculation with S. typhimurium, mice were given 0, 100, or 250 μg of PR-26 in PBS. A second dose of PR-26 or PBS was given 4 hrs. later.

In data set [1] the target is T1, cell-free NADPH oxidase (human neutrophil cytosol and membranes) (Homo sapiens, UniProt P14598).
T1 construct: 10^6 cell equivalents of human neutrophil cytosol; from tissue; host or cells: human peripheral blood neutrophils (cytosol and deoxycholate-solubilized membranes)
T1 sequence (P14598 1-390): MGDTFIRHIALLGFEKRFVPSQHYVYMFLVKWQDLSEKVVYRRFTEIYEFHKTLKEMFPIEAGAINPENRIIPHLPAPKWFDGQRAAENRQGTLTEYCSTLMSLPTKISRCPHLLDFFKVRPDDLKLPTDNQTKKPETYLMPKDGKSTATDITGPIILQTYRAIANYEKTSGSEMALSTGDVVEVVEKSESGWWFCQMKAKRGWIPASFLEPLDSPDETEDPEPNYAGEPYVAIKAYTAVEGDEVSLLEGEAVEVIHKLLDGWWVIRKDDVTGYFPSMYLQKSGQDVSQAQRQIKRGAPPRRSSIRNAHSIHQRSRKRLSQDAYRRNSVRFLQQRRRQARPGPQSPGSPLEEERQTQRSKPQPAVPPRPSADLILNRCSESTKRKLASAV
The data set is described as follows: Cell-free O2- production assay. Format: biochemical. The procedure:
Reactions (100 μl) contained 10^6 cell equivalents of human neutrophil cytosol and 5×10^5 cell equivalents of deoxycholate-solubilized membranes prepared from human peripheral blood neutrophils. […] Control reactions contained 5 μg of superoxide dismutase. Superoxide anion generation was calculated based on superoxide dismutase-inhibitable changes in cytochrome c absorbance observed at 551 nm. The reactions were followed for 20 min. after addition of arachidonic acid, with absorbance readings taken at 1-min. intervals. […] Determinations were based on reactions performed in duplicate. • (ii) Binding assays. Neutrophils were disrupted by sonication, and unbroken cells, debris, and granules were removed by centrifuigation (13,000×g for 60 min.). Cytosol fractions were prepared by centrifugation (100,000 g for 45 min.) of the supernatants to remove residual membranes. Cytosolic proteins (15 μg in reducing buffer) were separated on a 7.5% SDS PAGE gel, transferred to PVDF membranes, and probed with biotinylated PR-39 (0.3 μM) for 2 hr. Binding between PR-39 and cytosolic proteins were visualized by a chemiluminescent streptavidin alkaline phosphatase system using an Epson scanner (Torrance, Calif.) and the NIH Image program. PR-39 was labeled with biotin hydrazide at the carboxy-terminus (Pierce Chemical Co., Rockford, Ill.) and purified by gel filtration chromatography.

The next data set concerns E. coli, ATCC 25922. The data set can be described thus: Gel-overlay antibacterial assay. Format: cell-based, Escherichia coli. Conditions: 10 μg peptide per lane, AU-PAGE gel overlaid with E. coli, 18 hr.
Another data set has as its system E. coli, ATTC 25922. The data set can be described thus: Lawn-spotting antibacterial assay (E. coli). Format: cell-based, Escherichia coli. Conditions: 5 μl spotted, inactive segments up to 1 mg/ml.
For data set [2], the system named is S. typhimurium, KSU isolate 7. The data set can be described thus: Lawn-spotting antibacterial assay (S. typhimurium). The format is cell-based, Salmonella typhimurium. Conditions: 5 μl spotted, inactive segments up to 1 mg/ml.
For another data set, the system named is porcine neutrophils. The data set can be described thus: Neutrophil chemotaxis, modified Boyden chamber. Format: cell-based. Conditions: peptide at 1 μM, 30 min. The procedure:
Influence of PR-39 on neutrophil chemotaxis. Chemotaxis of porcine neutrophils was measured by the procedure of Salak et al. (1993). Briefly, PR-14, PR15, PR-16, PR-26, or PR-39 (30 μl in Dulbecco's Modified Eagle's medium) were placed in the bottom chamber of a modified Boyden chamber (Neuro Probe, Cabin John, Md.) and porcine neutrophils (50 μl at 5×10^6 cells/ml) were placed in the top chamber. The chambers were incubated at 37° C. for 30 min. Cells that migrated through the porous membrane (pore size 5 μm) were stained using LeukoStat solution and enumerated. Five microscope fields were counted and the cells that migrated through the membrane were standardized to the medium control and referred to as the migration index.

Data set [3] concerns whole-cell NADPH oxidase activity of porcine peripheral blood neutrophils. The data set is described as follows: Whole-cell O2- production, ferricytochrome c reduction. Conditions: incubated 150 min. before PMA stimulation. The format is cell-based. On the procedure:
Regulation of neutrophil O2^− production by PR-26 and PR-39. • (i) O2^− production assays. Whole-cell O2^− production by por-cine peripheral blood neutrophils was determined by the superoxide dismutase-inhibitable reduction of ferricytochrome c as previously described (Shi et al., 1994a). Cell-free O2^− production was measured as previously described (Leto et al., 1991) using 96-well plates and a Molecular Devices Thermomax microplate reader (Menlo Park, Calif.). Reactions (100 μl) contained 10^6 cell equivalents of human neutrophil cytosol and 5×10^5 cell equivalents of deoxycholate-solubilized membranes prepared from human peripheral blood neutrophils. Reaction mixtures contained 50 mM potassium phosphate (pH 7), 0.2 mM acetylated cytochrome c, 4 mM MgCl2, 1 mM EGTA, 10 μM FAD, 1 μM GTP-γS, and 200 μM NADPH. The reactions were initiated by addition of 40 μM arachidonic acid. Control reactions contained 5 μg of superoxide dismutase. Superoxide anion generation was calculated based on superoxide dismutase-inhibitable changes in cytochrome c absorbance observed at 551 nm. The reactions were followed for 20 min. after addition of arachidonic acid, with absorbance readings taken at 1-min. intervals. Maximum rates of superoxide generation were calculated from a linear least squares fit of 10 consecutive 1-min. data points. Determinations were based on reactions performed in duplicate. • (ii) Binding assays. Neutrophils were disrupted by sonication, and unbroken cells, debris, and granules were removed by centrifuigation (13,000×g for 60 min.). Cytosol fractions were prepared by centrifugation (100,000 g for 45 min.) of the supernatants to remove residual membranes. Cytosolic proteins (15 μg in reducing buffer) were separated on a 7.5% SDS PAGE gel, transferred to PVDF membranes, and probed with biotinylated PR-39 (0.3 μM) for 2 hr. Binding between PR-39 and cytosolic proteins were visualized by a chemiluminescent streptavidin alkaline phosphatase system using an Epson scanner (Torrance, Calif.) and the NIH Image program. PR-39 was labeled with biotin hydrazide at the carboxy-terminus (Pierce Chemical Co., Rockford, Ill.) and purified by gel filtration chromatography.

[4] abbreviates: cell-free assay, read-out: IC50 of O2- generation.

Experimental findings from patent publication US7049396B2, “Synthetic peptides that inhibit leukocyte superoxide anion production and/or attract leukocytes” (priority 1995, dated 2006) are described below.

Converted amounts (≈) assume the structure as drawn. Like-named read-outs stand apart in the source and are kept apart here. Where a SMILES comes first, the peptide text is derived from it. Some results are limits rather than exact numbers.

Method for Escherichia coli, K88: Briefly, 50 μl of twofold serial dilutions (128 to 0.25 μM) of synthetic peptides were dispensed into wells of 96-well tissue culture plates. Bacteria (E. coli, ATCC 25922; E. coli, K88; S. typhimurium, fresh isolate from a dog; Salmonella choleraesuis ATCC 6962; Streptococcus suis, fresh isolate from porcine spleen; and Staphylococcus aureus) from sheep-blood or brain-heart-infusion agar plates were standardized to 0.5 McFarland in demineralized water using a radiometer/sensititre (Chelsea Instrument Ltd., England). The water/bacteria suspension (100 μl) was immediately transferred to 10 ml of cation-adjusted Muller-Hinton broth and 50 μl of the bacterial suspension then were added to each well of the microtiter plate. Plates were incubated for 20 hr. at 37° C. and MICs were determined. Ten microliters of bacterial suspensions in Muller-Hinton broth also were diluted to determine the actual bacterial concentration using standard colony forming unit (CFU) counting. After determination of the MICs, 10 μl of each bacteria-peptide suspension were plated on sheep-blood or brain-heart-infusion agar plates and incubated for 24 hr. at 37° C. to determine the MBCs. MBC was considered that peptide concentration that inhibited 99.9% of the original CFUs (NCCLS, 1990). • (iv) PAE.

By MBC is commonly meant the lowest tested concentration that kills the bacteria rather than only halting them. What is called MIC is the least concentration at which growth counts as inhibited. In the case of `CC[C@H](C)[C@H](NC(=O)[C@H](CCCNC(=N)N)NC(=O)[C@@H]1CCCN1C(=O)[C@@H]1CCCN1C(=O)[C@H](CC(C)C)NC(=O)[C@H](CCCNC(=N)N)NC(=O)[C@@H]1CCCN1C(=O)[C@@H]1CCCN1C(=O)[C@H](Cc1ccccc1)NC(=O)[C@H](Cc1ccccc1)NC(=O)[C@@H]1CCCN1C(=O)[C@@H]1CCCN1C(=O)[C@@H]1CCCN1C(=O)[C@H](CCCNC(=N)N)NC(=O)[C@@H]1CCCN1C(=O)[C@H](CCCNC(=N)N)NC(=O)[C@@H]1CCCN1C(=O)[C@H](CC(C)C)NC(=O)[C@H](Cc1ccc(O)cc1)NC(=O)[C@@H]1CCCN1C(=O)[C@@H]1CCCN1C(=O)[C@H](CCCNC(=N)N)NC(=O)[C@@H]1CCCN1C(=O)[C@H](CCCNC(=N)N)NC(=O)[C@H](CCCNC(=N)N)NC(=O)[C@@H](N)CCCNC(=N)N)C(=O)O` [PR-26] (H-RRRPRPPYLPRPRPPPFFPPRLPPRI-OH), the MBC is 2 µM (≈ 6.46 µg/mL) against Salmonella choleraesuis; 8 µM (≈ 25.8 µg/mL) against Escherichia coli, 25922; 2 µM (≈ 6.46 µg/mL) in the data set with Salmonella typhimurium; more than 64 µM against Streptococcus suis; 4 µM (≈ 12.9 µg/mL) in the data set on Escherichia coli, K88. Also, the MIC was 1 µM (≈ 3.23 µg/mL) against Salmonella choleraesuis; 2 µM (≈ 6.46 µg/mL) against Escherichia coli, 25922; 2 µM (≈ 6.46 µg/mL) against Salmonella typhimurium; more than 250 µM against Staphylococcus aureus; 16 µM (≈ 51.7 µg/mL) in the data set on Streptococcus suis; 1 µM (≈ 3.23 µg/mL) against Escherichia coli, K88. Besides, the toxicity in mice entry in the data set on S. typhimurium was “no evidence of toxicity”. The compound also gave an IC50 in data set [1] of approximately 1 µM.
Regarding `CC(C)C[C@H](NC(=O)[C@H](Cc1ccc(O)cc1)NC(=O)[C@@H]1CCCN1C(=O)[C@@H]1CCCN1C(=O)[C@H](CCCNC(=N)N)NC(=O)[C@@H]1CCCN1C(=O)[C@H](CCCNC(=N)N)NC(=O)[C@H](CCCNC(=N)N)NC(=O)[C@@H](N)CCCNC(=N)N)C(=O)N1CCC[C@H]1C(=O)N[C@@H](CCCNC(=N)N)C(=O)N1CCC[C@H]1C(=O)N[C@@H](CCCNC(=N)N)C(=O)N1CCC[C@H]1C(=O)N1CCC[C@H]1C(=O)N1CCC[C@H]1C(=O)N[C@@H](Cc1ccccc1)C(=O)N[C@@H](Cc1ccccc1)C(=O)N1CCC[C@H]1C(=O)O` [PR-19] (H-RRRPRPPYLPRPRPPPFFP-OH), in data set [1] (setting [4]), the IC50 was approximately 5 µM.
On to “PR-16: central segment 11 to 26 of PR-39; Sequence ID No. 5 (RPRPPPFFPPRLPPRI)”, for which the “antibacterial activity (clear zones on overlaid gel)” value in the data set with E. coli, ATCC 25922 is “only PR-26 and PR-39 were found to have antibacterial activity”. Moreover, the “antibacterial activity (clear zone on bacterial lawn)” value with E. coli, ATTC 25922 is “no antibacterial activity”; in [2], “no antibacterial activity”. Besides, the “neutrophil chemotaxis (migration index)” value with porcine neutrophils was “chemotactic agents”. The “O2- generation by intact neutrophils” value in data set [3] was “did not significantly reduce”. The “effect on O2- generation” value in data set [1] (cell-free assay) is given as “did not affect”.
Consider `CC[C@H](C)[C@H](NC(=O)[C@H](CCCNC(=N)N)NC(=O)[C@@H]1CCCN1C(=O)[C@@H]1CCCN1C(=O)[C@H](CC(C)C)NC(=O)[C@H](CCCNC(=N)N)NC(=O)[C@@H]1CCCN1C(=O)[C@@H]1CCCN1C(=O)[C@H](Cc1ccccc1)NC(=O)[C@H](Cc1ccccc1)NC(=O)[C@@H]1CCCN1C(=O)[C@@H]1CCCN1C(=O)[C@@H]1CCCN1C(=O)[C@H](CCCNC(=N)N)NC(=O)[C@@H]1CCCN1C(=O)[C@H](CCCNC(=N)N)NC(=O)[C@@H]1CCCN1C(=O)[C@H](CC(C)C)NC(=O)[C@H](Cc1ccc(O)cc1)NC(=O)[C@@H]1CCCN1C(=O)[C@@H]1CCCN1C(=O)[C@H](CCCNC(=N)N)NC(=O)[C@@H]1CCCN1)C(=O)O` [PR-23] (H-PRPPYLPRPRPPPFFPPRLPPRI-OH), for which, in data set [1] (setting [4]), the IC50 is approximately 25 µM.
As for “PR-15: COOH-terminal segment 25 to 39 of PR-39; Sequence ID No. 6 (RIPPGFPPRFPPRFP)”, the “antibacterial activity (clear zones on overlaid gel)” value in the data set with E. coli, ATCC 25922 was “only PR-26 and PR-39 were found to have antibacterial activity”. Also, the “antibacterial activity (clear zone on bacterial lawn)” value with E. coli, ATTC 25922 is recorded as “no antibacterial activity”; in data set [2] it was “no antibacterial activity”. In addition, the “neutrophil chemotaxis (migration index)” value in the data set on porcine neutrophils is listed as “chemotactic agents”. In data set [3], the “O2- generation by intact neutrophils” value was “did not significantly reduce”. Moreover, the “effect on O2- generation” value in data set [1] (cell-free assay) is recorded as “did not affect”.
Consider “PR-14: NH2-terminal segment 1 to 14 of PR-39; Sequence ID No. 7 (RRRPRPPYLPRPRP)”, for which, in the data set on E. coli, ATCC 25922, the “antibacterial activity (clear zones on overlaid gel)” value was “only PR-26 and PR-39 were found to have antibacterial activity”. In addition, the “antibacterial activity (clear zone on bacterial lawn)” value was “no antibacterial activity” with E. coli, ATTC 25922 and “no antibacterial activity” in [2]. In addition, in the data set with porcine neutrophils, the “neutrophil chemotaxis (migration index)” value is “chemotactic agents”. Also, the “O2- generation by intact neutrophils” value in data set [3] is listed as “did not significantly reduce”. In addition, the “concentrations at which O2- generation was reduced” value in data set [1] (cell-free assay) is “greater than 25 μM”.
